Experimental data taken from ChEMBL document CHEMBL6134870 (J Med Chem, 2025).

Legend:
[1] = human, serum, 2 h
[2] = Cytotoxicity against BoNT/A treated human iPSC cells assessed as cell rounding at 100 uM incubated for 7.5 hrs by Western blot analysis; type: toxicity, cell-based
[3] = biological target: Matrix metalloproteinase-14 (Homo sapiens, UniProt P50281); assay: Inhibition of MMP-14 (unknown origin) at 25 uM; type: toxicity
[4] = biological target: T1, Matrix metalloproteinase-19 (Homo sapiens, UniProt Q99542); assay: Inhibition of MMP-19 (unknown origin) at 25 uM; type: toxicity
T1 sequence (Q99542 whole entry): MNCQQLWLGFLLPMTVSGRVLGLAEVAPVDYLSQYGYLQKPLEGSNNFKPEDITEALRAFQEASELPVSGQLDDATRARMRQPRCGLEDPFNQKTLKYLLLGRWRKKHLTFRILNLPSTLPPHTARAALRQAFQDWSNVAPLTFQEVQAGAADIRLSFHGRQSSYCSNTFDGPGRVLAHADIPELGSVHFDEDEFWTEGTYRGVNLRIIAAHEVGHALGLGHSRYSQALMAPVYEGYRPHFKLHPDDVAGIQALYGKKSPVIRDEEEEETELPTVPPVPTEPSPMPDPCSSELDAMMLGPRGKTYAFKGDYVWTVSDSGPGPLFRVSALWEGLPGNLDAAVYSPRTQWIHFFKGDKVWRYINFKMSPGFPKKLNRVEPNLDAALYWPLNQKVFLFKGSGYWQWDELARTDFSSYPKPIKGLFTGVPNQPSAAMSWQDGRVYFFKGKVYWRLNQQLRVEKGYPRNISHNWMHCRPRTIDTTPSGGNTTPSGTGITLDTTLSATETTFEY

[5] = system: HEK293; assay: Cytotoxicity against HEK293 cells assessed as reduction in cell viability at 2 to 128 uM incubated for 24 hrs by MTS assay; type: toxicity, cell-based; settings: human, hek293, 24 h, dose 2-128 µM

Compound: C=C=CC(=O)NCCCc1ccn2c(=O)cc(CNCc3ccc(-c4ccccc4)cc3)nc2c1O
- t1/2 [1]: 6.4 h

Compound: FC(F)(F)c1ccc(-c2ccc3c(c2)CC(=S)N3)c(C2CC2)c1
- Activity [2]: Toxic

Compound: FC(F)(F)c1ccc(-c2cc3c(cc2Cl)NC(=S)C3)c(C(F)(F)F)c1
- Activity [3]: Active
- Activity [4]: Active

Compound: FC(F)(F)c1ccc(-c2ccc3c(c2)CC(=S)N3)c(C(F)(F)F)c1
- Activity [5]: Non-toxic
- Activity [2]: Toxic

Compound: Cn1c(SC(=O)C(C)(C)C)cc2cc(C(=O)Nc3ccccc3)ccc21
- t1/2 [1]: 1.2 h
